Test results: US10004679B2, “Compositions of Amorphophallus konjac and methods for their use in skin care” (Vidya Herbs, Inc., priority 2014, dated 2018)

Assays:
Assay type in all cases: biochemical
[1] = target: Porcine pancreatic elastase (Sus scrofa, UniProt P00772); experiment: In vitro anti-elastase activity
Procedure: The assay employed was based on methods from the literature. This assay was performed in 0.2 mM Tris-HCL buffer (pH 8.0). Porcine pancreatic elastase (PE-E.C.3.4.21.36) was dissolved to make a 3.33 mg/mL stock solution in sterile water. The substrate N-succinyl-Ala-Ala-Ala-p-nitroanilide (AAAPVN) was dissolved in buffer at 1.6 mM. The test extracts were incubated with the enzyme for 15 minutes before adding substrate to begin the reaction. The final reaction mixture (250 μL total volume) contained buffer, 0.8 mM AAAPVN,1 mg/mL PE and 25 mg test extract. EGCG (1 mg/mL) was used as a positive control. Negative controls were performed using water. Absorbance values between 381 and 402 nm (following pre-screen scans) were measured immediately following addition of the substrate and then continuous for 20 minutes. FIG. 6

[2] = tested on: Collagenase from Clostridium histolyticum; experiment: In vitro anti-collagenase activity (FALGPA substrate)
Procedure: The assay employed was based on spectrophotometric methods reported in the literature. The assay was performed in 50 mM Tricine buffer (pH 7.5 with 400 mM NaCl and 10 mM CaCl2). Collagenase from Clostridium histolyticum (ChC-[…]) was dissolved in buffer for use at an initial concentration of 0.8 units/mL according to the supplier's activity data. The synthetic substrate N-[3-(2-furyl)acryloyl]-Leu-Gly-Pro-Ala (FALGPA) was dissolved in Tricine buffer to 2 mM. […] The final reaction mixture (150 μL total volume) contained Tricine buffer, 0.8 mM FALGPA, 0.1 units ChC and 20-100 μg test extracts. Negative controls were performed with water. Absorbance at 335 nm was measured immediately after adding substrate and then continuous for 20 minutes. EGCG, 250 μM (0.114 mg/mL) was used as a positive control. FIG. 9

[3] = tested on: Mushroom tyrosinase; experiment: In vitro anti-tyrosinase activity (L-DOPA, dopachrome at 475 nm)
Procedure: Mushroom tyrosinase (Prod. No. T7755) and L-DOPA were purchased from Sigma Adrich. […] We also prepared positive controls of lmg/mL kojic acid solutions (with water), with enzyme. Twenty 20 μL of 0.85 mM L-DOPA solution as the substrate was added into every sample and blank. These assay mixtures were incubated at 25° C. for 10 min. The amount of dopachrome produced in the reaction mixture was measured at 475 nm.

Chain of Porcine pancreatic elastase (P00772 27-266): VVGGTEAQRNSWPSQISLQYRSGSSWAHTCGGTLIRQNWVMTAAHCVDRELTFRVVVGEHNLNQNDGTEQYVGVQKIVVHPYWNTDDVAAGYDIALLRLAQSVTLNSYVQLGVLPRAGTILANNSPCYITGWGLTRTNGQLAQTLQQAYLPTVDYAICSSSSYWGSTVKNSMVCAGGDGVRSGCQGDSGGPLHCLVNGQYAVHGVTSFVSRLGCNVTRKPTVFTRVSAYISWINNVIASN

Row | % inhibition of tyrosinase activity ([3]; 20 μg/ml) [%] | % inhibition of tyrosinase activity ([3]; 40 μg/ml) [%] | % inhibition of tyrosinase activity ([3]; 60 μg/ml) [%] | % inhibition of tyrosinase activity ([3]; 80 μg/ml) [%] | % inhibition of tyrosinase activity ([3]; 100 μg/ml) [%] | Compound | % inhibition of Elastase activity ([1]; 20 μg/ml) [%] | % inhibition of Elastase activity ([1]; 40 μg/ml) [%] | % inhibition of Elastase activity ([1]; 60 μg/ml) [%] | % inhibition of Elastase activity ([1]; 80 μg/ml) [%] | % inhibition of Elastase activity ([1]; 100 μg/ml) [%] | % inhibition of Collagenase activity ([2]; 20 μg/ml) [%] | % inhibition of Collagenase activity ([2]; 40 μg/ml) [%] | % inhibition of Collagenase activity ([2]; 60 μg/ml) [%] | % inhibition of Collagenase activity ([2]; 80 μg/ml) [%] | % inhibition of Collagenase activity ([2]; 100 μg/ml) [%]
1 |  |  |  |  |  | O=C(O[C@@H]1Cc2c(O)cc(O)cc2O[C@@H]1c1cc(O)c(O)c(O)c1)c1cc(O)c(O)c(O)c1 [EGCG, epigallocatechin gallate] | 43.98 | 54.36 | 53.32 | 60.37 | 62.45 | 8.30 | 16.93 | 25.83 | 32.70 | 41.52
2 | 64.46 | 77.66 | 88.32 | 91.37 | 93.90 | O=c1cc(CO)occ1O [Kojic acid, kojic acid] |  |  |  |  |  |  |  |  |  | 
